Reference: article PMC9031908 (RSC Advances, 2021)
Like-named read-outs stand apart in the source and are kept apart here.

Tests used:
H3 receptor = H3 receptor (Rattus norvegicus, UniProt Q9QYN8); type: binding
D2 receptor [1] = target: D2 receptor (Rattus norvegicus, UniProt P61169); experiment: biochemical; type: binding
5-HT2A receptor [2] = target: 5-HT2A receptor (Rattus norvegicus, UniProt P14842); experiment: biochemical; type: binding
5-HT1A receptor [3] = target: T1, 5-HT1A receptor (Rattus norvegicus, UniProt P19327); experiment: biochemical; type: binding
T1 sequence (P19327 1-422): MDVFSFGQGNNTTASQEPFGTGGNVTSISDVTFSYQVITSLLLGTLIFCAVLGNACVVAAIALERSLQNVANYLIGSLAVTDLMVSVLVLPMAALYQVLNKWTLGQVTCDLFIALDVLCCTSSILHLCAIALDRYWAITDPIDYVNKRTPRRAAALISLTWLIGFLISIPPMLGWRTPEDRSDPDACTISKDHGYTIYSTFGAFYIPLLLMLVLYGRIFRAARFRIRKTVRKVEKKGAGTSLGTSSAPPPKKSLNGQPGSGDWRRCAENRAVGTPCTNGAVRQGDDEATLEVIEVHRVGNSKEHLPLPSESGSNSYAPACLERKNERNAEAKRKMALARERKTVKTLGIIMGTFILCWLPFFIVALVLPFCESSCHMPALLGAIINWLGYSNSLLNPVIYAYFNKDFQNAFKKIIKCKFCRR

5-HT6 receptor [4] = target: T2, 5-HT6 receptor (Homo sapiens, UniProt P50406); experiment: biochemical; type: binding
T2 sequence (P50406 whole entry): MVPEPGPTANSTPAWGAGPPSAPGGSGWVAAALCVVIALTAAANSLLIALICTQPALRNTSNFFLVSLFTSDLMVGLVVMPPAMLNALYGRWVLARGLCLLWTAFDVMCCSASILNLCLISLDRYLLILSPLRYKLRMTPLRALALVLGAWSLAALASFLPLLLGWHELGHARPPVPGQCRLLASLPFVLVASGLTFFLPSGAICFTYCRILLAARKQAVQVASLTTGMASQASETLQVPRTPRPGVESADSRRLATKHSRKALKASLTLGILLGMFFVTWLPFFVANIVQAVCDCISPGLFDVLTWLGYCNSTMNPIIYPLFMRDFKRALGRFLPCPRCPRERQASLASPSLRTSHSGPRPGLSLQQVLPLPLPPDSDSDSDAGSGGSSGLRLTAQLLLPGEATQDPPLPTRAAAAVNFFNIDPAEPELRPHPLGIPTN

hH3R = hH3R (Homo sapiens, UniProt Q9Y5N1); experiment: H3 functional activity
Sequence of hH3R (Q9Y5N1 whole entry): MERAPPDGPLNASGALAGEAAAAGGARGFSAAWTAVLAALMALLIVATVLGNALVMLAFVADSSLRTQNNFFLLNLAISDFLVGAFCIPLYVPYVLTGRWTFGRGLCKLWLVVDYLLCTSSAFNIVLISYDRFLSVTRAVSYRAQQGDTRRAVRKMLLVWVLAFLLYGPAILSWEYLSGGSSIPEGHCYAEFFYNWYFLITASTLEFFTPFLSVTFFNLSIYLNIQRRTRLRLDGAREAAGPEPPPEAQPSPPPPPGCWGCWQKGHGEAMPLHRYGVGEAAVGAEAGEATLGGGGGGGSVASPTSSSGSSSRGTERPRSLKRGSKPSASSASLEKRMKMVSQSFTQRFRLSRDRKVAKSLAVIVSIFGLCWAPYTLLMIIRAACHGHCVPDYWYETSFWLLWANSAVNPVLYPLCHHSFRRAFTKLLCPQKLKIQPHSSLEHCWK

H1 receptor = H1 receptor (Cavia porcellus, UniProt P31389); experiment: biochemical
Sequence of H1 receptor (P31389 whole entry): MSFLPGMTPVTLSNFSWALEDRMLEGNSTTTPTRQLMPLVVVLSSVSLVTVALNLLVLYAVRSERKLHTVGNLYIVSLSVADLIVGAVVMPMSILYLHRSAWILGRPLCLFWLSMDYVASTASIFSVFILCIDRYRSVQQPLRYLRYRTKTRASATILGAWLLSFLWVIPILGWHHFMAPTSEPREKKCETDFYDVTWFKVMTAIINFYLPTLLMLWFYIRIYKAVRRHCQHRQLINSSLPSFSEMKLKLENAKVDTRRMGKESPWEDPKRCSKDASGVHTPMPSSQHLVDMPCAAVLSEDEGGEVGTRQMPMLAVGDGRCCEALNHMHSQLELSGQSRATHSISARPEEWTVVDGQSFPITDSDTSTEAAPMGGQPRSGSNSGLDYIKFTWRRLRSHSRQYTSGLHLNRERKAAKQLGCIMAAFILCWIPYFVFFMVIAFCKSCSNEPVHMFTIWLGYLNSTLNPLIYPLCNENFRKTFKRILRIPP

α1 receptor = conditions: read-out: Receptor affinity Ki ± SEM, α1; three experiments, mean ± SEM
D2 receptor [5] = target: D2 receptor (Homo sapiens, UniProt P14416); experiment: cell-based
Sequence of D2 receptor (Homo sapiens, UniProt P14416) (P14416 whole entry): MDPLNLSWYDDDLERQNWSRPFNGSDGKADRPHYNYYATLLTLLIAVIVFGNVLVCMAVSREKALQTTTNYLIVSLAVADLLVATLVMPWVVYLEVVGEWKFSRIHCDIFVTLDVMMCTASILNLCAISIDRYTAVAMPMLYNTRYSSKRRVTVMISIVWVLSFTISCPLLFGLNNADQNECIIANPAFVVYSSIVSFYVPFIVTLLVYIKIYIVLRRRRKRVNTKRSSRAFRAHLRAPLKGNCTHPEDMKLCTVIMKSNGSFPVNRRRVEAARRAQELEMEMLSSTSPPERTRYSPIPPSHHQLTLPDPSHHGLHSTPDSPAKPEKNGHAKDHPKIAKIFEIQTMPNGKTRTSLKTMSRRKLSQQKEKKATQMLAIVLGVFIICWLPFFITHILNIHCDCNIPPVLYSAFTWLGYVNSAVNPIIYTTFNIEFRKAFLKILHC

mice [6] = experiment: MK-801-induced hyperactivity; conditions: po
mice [7] = experiment: Apomorphine-induced climbing; type: in vivo; conditions: po
5-HT2A receptor [8] = target: 5-HT2A receptor (Homo sapiens, UniProt P28223); experiment: 5-HT2A functional activity; type: cell-based
Sequence of 5-HT2A receptor (Homo sapiens, UniProt P28223) (P28223 whole entry): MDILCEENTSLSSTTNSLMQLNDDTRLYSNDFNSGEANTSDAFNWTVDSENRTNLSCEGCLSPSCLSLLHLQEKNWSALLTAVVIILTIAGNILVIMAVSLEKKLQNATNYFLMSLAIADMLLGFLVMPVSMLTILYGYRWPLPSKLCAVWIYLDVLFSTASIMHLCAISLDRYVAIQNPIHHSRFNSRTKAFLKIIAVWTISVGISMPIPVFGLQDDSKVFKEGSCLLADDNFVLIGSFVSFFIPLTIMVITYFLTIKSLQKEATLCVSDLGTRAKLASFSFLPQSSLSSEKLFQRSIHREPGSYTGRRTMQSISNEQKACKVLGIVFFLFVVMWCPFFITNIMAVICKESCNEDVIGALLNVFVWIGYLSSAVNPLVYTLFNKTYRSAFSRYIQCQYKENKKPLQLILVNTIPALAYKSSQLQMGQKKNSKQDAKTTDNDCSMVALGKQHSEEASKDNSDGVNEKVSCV

5-HT6 receptor [9] = target: T2, 5-HT6 receptor; experiment: cell-based
rats [10] = conditions: oral
mice [11] = experiment: Catalepsy test; type: in vivo; conditions: po
mice [12] = experiment: Weight gain after 28 days of administration; type: in vivo; conditions: oral
5-HT1A receptor [13] = target: T3, 5-HT1A receptor (Homo sapiens, UniProt P08908); experiment: cell-based
T3 sequence (P08908 1-422): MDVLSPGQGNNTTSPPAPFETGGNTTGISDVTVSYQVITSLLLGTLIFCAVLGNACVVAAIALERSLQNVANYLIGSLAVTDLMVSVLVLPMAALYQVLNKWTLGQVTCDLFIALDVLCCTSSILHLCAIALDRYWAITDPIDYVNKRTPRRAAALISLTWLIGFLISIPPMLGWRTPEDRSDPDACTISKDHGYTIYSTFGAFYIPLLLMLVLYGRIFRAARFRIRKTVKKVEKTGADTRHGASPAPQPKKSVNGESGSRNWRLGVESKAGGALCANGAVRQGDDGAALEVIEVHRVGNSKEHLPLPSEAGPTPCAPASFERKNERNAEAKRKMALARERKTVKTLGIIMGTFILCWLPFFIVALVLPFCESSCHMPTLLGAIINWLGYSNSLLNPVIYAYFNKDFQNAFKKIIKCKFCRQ

5-HT2C receptor = target: T4, 5-HT2C receptor (Rattus norvegicus, UniProt P08909); experiment: biochemical
T4 sequence (P08909 33-460): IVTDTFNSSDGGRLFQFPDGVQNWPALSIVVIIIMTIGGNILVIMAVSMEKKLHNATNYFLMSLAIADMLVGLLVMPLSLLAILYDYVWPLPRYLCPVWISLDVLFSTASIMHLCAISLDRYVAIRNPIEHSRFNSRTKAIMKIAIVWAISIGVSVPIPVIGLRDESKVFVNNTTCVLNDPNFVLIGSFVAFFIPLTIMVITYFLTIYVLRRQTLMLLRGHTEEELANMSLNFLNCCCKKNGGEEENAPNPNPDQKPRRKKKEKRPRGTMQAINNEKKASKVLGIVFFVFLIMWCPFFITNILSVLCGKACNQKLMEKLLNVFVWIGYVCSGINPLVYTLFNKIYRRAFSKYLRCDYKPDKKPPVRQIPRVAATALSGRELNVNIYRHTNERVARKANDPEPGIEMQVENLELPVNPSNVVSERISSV

mice [14] = experiment: Acute toxicity; conditions: oral, 24 h
rats [15] = experiment: Conditioned avoidance response; type: in vivo; conditions: po
mice [16] = experiment: Serum prolactin after 28 days of administration; type: in vivo; conditions: oral

Sequence of H3 receptor (Q9QYN8 whole entry): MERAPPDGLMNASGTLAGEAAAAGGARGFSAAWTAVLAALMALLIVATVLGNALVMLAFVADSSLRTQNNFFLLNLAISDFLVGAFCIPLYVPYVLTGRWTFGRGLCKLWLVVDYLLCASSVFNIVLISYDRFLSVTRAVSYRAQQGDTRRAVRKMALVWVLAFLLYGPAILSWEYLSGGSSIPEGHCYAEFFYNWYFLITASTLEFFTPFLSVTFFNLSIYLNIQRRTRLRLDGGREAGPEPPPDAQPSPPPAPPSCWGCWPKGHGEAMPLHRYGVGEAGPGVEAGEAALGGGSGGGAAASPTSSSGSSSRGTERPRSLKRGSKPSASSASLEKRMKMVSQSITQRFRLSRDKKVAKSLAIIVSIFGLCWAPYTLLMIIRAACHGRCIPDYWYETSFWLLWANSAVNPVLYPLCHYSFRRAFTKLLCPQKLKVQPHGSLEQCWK
Sequence of D2 receptor (Rattus norvegicus, UniProt P61169) (P61169 whole entry): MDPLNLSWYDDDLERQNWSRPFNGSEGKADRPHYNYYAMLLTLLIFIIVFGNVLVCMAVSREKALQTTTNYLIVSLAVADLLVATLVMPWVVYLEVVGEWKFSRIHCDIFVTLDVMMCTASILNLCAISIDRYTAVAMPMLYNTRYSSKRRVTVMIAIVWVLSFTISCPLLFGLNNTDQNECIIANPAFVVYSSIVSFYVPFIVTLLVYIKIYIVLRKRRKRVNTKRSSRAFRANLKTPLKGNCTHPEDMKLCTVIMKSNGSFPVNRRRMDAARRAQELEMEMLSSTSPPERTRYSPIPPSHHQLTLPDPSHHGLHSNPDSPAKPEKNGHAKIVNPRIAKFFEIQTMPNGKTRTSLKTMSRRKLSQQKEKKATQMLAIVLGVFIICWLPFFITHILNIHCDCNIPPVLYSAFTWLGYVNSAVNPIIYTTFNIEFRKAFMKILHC
Sequence of 5-HT2A receptor (Rattus norvegicus, UniProt P14842) (P14842 whole entry): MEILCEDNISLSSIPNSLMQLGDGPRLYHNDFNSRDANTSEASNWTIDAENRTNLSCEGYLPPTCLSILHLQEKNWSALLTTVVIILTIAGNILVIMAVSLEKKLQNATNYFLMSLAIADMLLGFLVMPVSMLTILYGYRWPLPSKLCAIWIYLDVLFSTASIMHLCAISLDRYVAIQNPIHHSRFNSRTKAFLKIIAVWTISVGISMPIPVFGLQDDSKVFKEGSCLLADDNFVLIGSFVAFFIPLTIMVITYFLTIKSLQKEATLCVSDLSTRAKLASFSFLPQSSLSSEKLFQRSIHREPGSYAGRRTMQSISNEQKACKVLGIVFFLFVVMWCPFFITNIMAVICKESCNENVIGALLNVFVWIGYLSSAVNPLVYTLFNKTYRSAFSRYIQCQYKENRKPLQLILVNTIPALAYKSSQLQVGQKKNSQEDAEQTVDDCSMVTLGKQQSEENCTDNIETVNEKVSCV

SMILES | Ki (H3 receptor) [nM] | Ki (D2 receptor [1]) [nM] | Ki (5-HT2A receptor [2]) [nM] | Ki (5-HT1A receptor [3]) [nM] | Ki (5-HT6 receptor [4]) [nM] | further results
Fc1cc(CN2CCCC2)ccc1OCCCN1CCN(c2cccc3sccc23)CC1 [Compound 3c] | 92.9 ± 3.6 | 100 ± 7 | 259 ± 14 | 155 ± 15.2 | 383 ± 34.6 | 
Fc1cc(OCCCN2CCN(c3cccc4sccc34)CC2)ccc1CN1CCCC1 [Compound 3d] | 54.4 ± 2 | 98.7 ± 6.8 | 262 ± 17.5 | 144 ± 10.4 | 354 ± 65.8 | 
Clc1cc(OCCCN2CCN(c3cccc4sccc34)CC2)ccc1CN1CCCC1 [Compound 3f] | 75.3 ± 8.5 | 120 ± 15 | 268 ± 20.2 | 185 ± 16.3 | 376 ± 58.3 | 
COc1cc(CN2CCCC2)ccc1OCCCN1CCN(c2cccc3sccc23)CC1 [Compound 3g] | 62.5 ± 5 | 99.5 ± 8.4 | 129 ± 15.1 | 149 ± 11.7 | 462 ± 55.7 | 
c1cc(N2CCN(CCCOc3ccc(CN4CCCC4)cc3)CC2)c2ccsc2c1 [Compound 3i] | 53 ± 6.3 | 91.1 ± 4.5 | 186 ± 20.1 | 135 ± 10.5 | 384 ± 51.3 | 
Cc1cc(CN2CCCCC2)ccc1OCCCN1CCN(c2cccc3sccc23)CC1 [Compound 3j] | 85 ± 9.8 | 138 ± 30.1 | 324 ± 27.5 | 305 ± 28.2 | 385 ± 51 | 
Fc1cc(CN2CCCCC2)ccc1OCCCN1CCN(c2cccc3sccc23)CC1 [Compound 3l] | 88.4 ± 10.1 | 197 ± 15.5 | 175 ± 25.3 | 285 ± 15.7 | 389 ± 63.2 | 
Fc1cc(OCCCN2CCN(c3cccc4sccc34)CC2)ccc1CN1CCCCC1 [Compound 3m] | 81.5 ± 6.5 | 110 ± 8.9 | 146 ± 11.5 | 213 ± 24.3 | 365 ± 55.6 | 
COc1cc(CN2CCCCC2)ccc1OCCCN1CCN(c2cccc3sccc23)CC1 [Compound 3p] |  | 144 ± 15 | 198 ± 16.9 | 229 ± 25.8 | 416 ± 81.3 | 
c1cc(N2CCN(CCCOc3ccc(CN4CCOCC4)cc3)CC2)c2ccsc2c1 [Compound 3w] | 12.1 ± 1.5 | 17.5 ± 1.9 |  | 16.7 ± 1.8 | 336 ± 65.3 | IC50 (hH3R): 232 nM; Ki (H1 receptor): 820 ± 48.7 nM; Ki (α1 receptor): 406 ± 60.8 nM; IC50 (D2 receptor [5]): 11.6 nM; MK-801: MK-801-induced hyperactivity ED50 (mice [6]): 0.17 mg/kg; APO: apomorphine-induced climbing ED50 (mice [7]): 0.28 mg/kg; IC50 (5-HT2A receptor [8]): 142 nM; IC50 (5-HT6 receptor [9]): 413 nM; novelty discrimination index (NDI) (rats [10]; 0.3 and 1.0 mg kg^−1): obvious increase; effect on total exploration time during the acquisition trial (rats [10]; 1.0–10.0 mg kg^−1): no obvious effect; difference in exploration times for novel and familiar objects, retention trial (rats [10]; low dose 0.1 mg kg^−1): no significant difference; CAT: catalepsy ED50 (mice [11]): 27.5 mg/kg; weight gain (mice [12]): negligible weight gain; IC50 (5-HT1A receptor [13]): 218 nM; Ki (5-HT2C receptor): 572 ± 91.5 nM
O=C(CCCN1CCC(O)(c2ccc(Cl)cc2)CC1)c1ccc(F)cc1 [Haloperidol, haloperidol] |  |  |  |  |  | LD50 (mice [14]): 21.0 mg/kg; MK-801: MK-801-induced hyperactivity ED50 (mice [6]): 0.11 mg/kg; APO: apomorphine-induced climbing ED50 (mice [7]): 0.09 mg/kg; CAT: catalepsy ED50 (mice [11]): 0.51 mg/kg
Cc1nc2n(c(=O)c1CCN1CCC(c3noc4cc(F)ccc34)CC1)CCCC2 [Risperidone, risperidone] |  |  |  |  |  | CAR: conditioned avoidance response ED50 (rats [15]): 0.65 mg/kg; CAR: conditioned avoidance response ED50 (rats [15]; listed as risperidone): 2.1 mg/kg; serum prolactin levels (mice [16]): significant increase; LD50 (mice [14]): 82.0 mg/kg; MK-801: MK-801-induced hyperactivity ED50 (mice [6]): 0.02 mg/kg; APO: apomorphine-induced climbing ED50 (mice [7]): 0.05 mg/kg; CAT: catalepsy ED50 (mice [11]): 0.51 mg/kg; CAT: catalepsy ED50 (mice [11]; listed as risperidone): 1.15 mg/kg; weight gain (mice [12]): significant weight gain
CCN(C)C(=O)Oc1cccc([C@H](C)N(C)C)c1 [rivastigmine, reference compound] |  |  |  |  |  | novelty discrimination index (NDI) (rats [10]; 0.1 and 0.3 mg kg^−1): obvious increase; exploration time for novel things vs vehicle, retention trial (rats [10]; 0.1 to 3.0 mg kg^−1): longer exploration
